Measurements from patent publication US20130261154A1 (priority 2010, published 2013).

Key:
Format in all cases: in vivo
Plasmopara viticola = test: Test A: grape downy mildew, spray after inoculation of grape seedlings; conditions: inoculated, 24 h later sprayed to run-off, visual disease rating, test concentration not given
Source text: General protocol for preparing test suspensions for Test A-C: The test compounds were first dissolved in acetone in an amount equal to 3% of the final volume and then suspended at the desired concentration (in ppm) in acetone and purified water (50/50 mix by volume) containing 250 ppm of the surfactant Trem® 014 (polyhydric alcohol esters). The resulting test suspensions were then used in Tests A-C. Spraying a 40 ppm test suspension to the point of run-off on the test plants was equivalent to a rate of 160 g/ha.
Grape seedlings were inoculated with a spore suspension of Plasmopara viticola (the causal agent of grape downy mildew) and incubated in a saturated atmosphere at 20° C. for 24 h. After a short drying period, the test suspension was sprayed to the point of run-off on the grape seedlings, which were then moved to a growth chamber at 20° C. for 5 days, after which time the grape seedling were placed back into a saturated atmosphere at 20° C. for 24 h. Upon removal, visual disease ratings were made.
Results for Tests A-C are given in Table A. In the table, a rating of 100 indicates 100% disease control and a rating of 0 indicates no disease control (relative to the controls).

Phytophthora infestans [1] = conditions: tomato seedlings; sprayed to run-off, inoculated the following day; visual disease rating; test concentration not given
Phytophthora infestans [2] = conditions: tomato seedlings; inoculated, 17 h later sprayed to run-off; visual disease rating; test concentration not given

Cc1cc(C(F)(F)F)nn1CC(=O)N1CCC(c2nc(C3=NOC(CCOc4ccccc4I)C3)cs2)CC1 (stereo not drawn) [Compound 1]
Test A disease control rating (100 = 100% disease control, 0 = no disease control relative to the controls) (Plasmopara viticola): 86% | Test B disease control rating (100 = 100% disease control, 0 = no disease control relative to the controls) (Phytophthora infestans [1]): 99% | Test C disease control rating (100 = 100% disease control, 0 = no disease control relative to the controls) (Phytophthora infestans [2]): 91%

Cc1cc(C(F)(F)F)nn1CC(=O)N1CCC(c2nc(C3=NOC(CCOc4c(F)cccc4F)C3)cs2)CC1 (stereo not drawn) [Compound 2, 1-[4-[4-[5-[2-(2,6-difluorophenoxy)ethyl]-4,5-dihydro-3-isoxazolyl]-2-thiazolyl]-1-piperidinyl]-2-[5-methyl-3-(trifluoromethyl)-1H-pyrazol-1-yl]ethanone]
Test A disease control rating (100 = 100% disease control, 0 = no disease control relative to the controls) (Plasmopara viticola): 96% | Test B disease control rating (100 = 100% disease control, 0 = no disease control relative to the controls) (Phytophthora infestans [1]): 100% | Test C disease control rating (100 = 100% disease control, 0 = no disease control relative to the controls) (Phytophthora infestans [2]): 99%

Cc1cc(C(F)(F)F)nn1CC(=O)N1CCC(c2nc(C3=NOC(COCN4C(=O)c5ccccc5C4=O)C3)cs2)CC1 (stereo not drawn) [Compound 3, 2-[[[4,5-dihydro-3-[2-[1-[2-[5-methyl-3-(trifluoromethyl)-1H-pyrazol-1-yl]acetyl]-4-piperidinyl]-4-thiazolyl]-5-isoxazolyl]methoxy]methyl]-1H-isoindole-1,3(2H)-dione]
Test A disease control rating (100 = 100% disease control, 0 = no disease control relative to the controls) (Plasmopara viticola): 40% | Test B disease control rating (100 = 100% disease control, 0 = no disease control relative to the controls) (Phytophthora infestans [1]): 95% | Test C disease control rating (100 = 100% disease control, 0 = no disease control relative to the controls) (Phytophthora infestans [2]): 46%

Cc1cc(C(F)(F)F)nn1CC(=O)N1CCC(c2nc(C3=NOC(CC(=O)NCc4c(F)cccc4F)C3)cs2)CC1 (stereo not drawn) [Compound 4, N-[(2,6-difluorophenyl)methyl]-4,5-dihydro-3-[2-[1-[2-[5-methyl-3-(trifluoromethyl)-1H-pyrazol-1-yl]acetyl]-4-piperidinyl]-4-thiazolyl]-5-isoxazoleacetamide]
Test A disease control rating (100 = 100% disease control, 0 = no disease control relative to the controls) (Plasmopara viticola): 24% | Test B disease control rating (100 = 100% disease control, 0 = no disease control relative to the controls) (Phytophthora infestans [1]): 100% | Test C disease control rating (100 = 100% disease control, 0 = no disease control relative to the controls) (Phytophthora infestans [2]): 99%

Cc1cc(C(F)(F)F)nn1CC(=O)N1CCC(c2nc(C3=NOC(CCCN4C(=O)c5ccccc5C4=O)C3)cs2)CC1 (stereo not drawn) [Compound 5]
Test A disease control rating (100 = 100% disease control, 0 = no disease control relative to the controls) (Plasmopara viticola): 67% | Test B disease control rating (100 = 100% disease control, 0 = no disease control relative to the controls) (Phytophthora infestans [1]): 100% | Test C disease control rating (100 = 100% disease control, 0 = no disease control relative to the controls) (Phytophthora infestans [2]): 99%

Cc1cc(C(F)(F)F)nn1CC(=O)N1CCC(c2nc(C3=NOC(CC(=O)Nc4c(F)cccc4F)C3)cs2)CC1 (stereo not drawn) [Compound 6]
Test A disease control rating (100 = 100% disease control, 0 = no disease control relative to the controls) (Plasmopara viticola): 0% | Test B disease control rating (100 = 100% disease control, 0 = no disease control relative to the controls) (Phytophthora infestans [1]): 9% | Test C disease control rating (100 = 100% disease control, 0 = no disease control relative to the controls) (Phytophthora infestans [2]): 46%

Cc1cc(C(F)(F)F)nn1CC(=O)N1CCC(c2nc(C3=NOC(CCCn4c(=O)sc5ccc(Cl)cc54)C3)cs2)CC1 (stereo not drawn) [Compound 8, 5-chloro-3-[3-[4,5-dihydro-3-[2-[1-[2-[5-methyl-3-(trifluoromethyl)-1H-pyrazol-1-yl]acetyl]-4-piperidinyl]-4-thiazolyl]-5-isoxazolyl]propyl]-2(3H)-benzothiazolone]
Test A disease control rating (100 = 100% disease control, 0 = no disease control relative to the controls) (Plasmopara viticola): 0% | Test B disease control rating (100 = 100% disease control, 0 = no disease control relative to the controls) (Phytophthora infestans [1]): 100% | Test C disease control rating (100 = 100% disease control, 0 = no disease control relative to the controls) (Phytophthora infestans [2]): 0%

Cc1cc(C(F)(F)F)nn1CC(=O)N1CCC(c2nc(C3=NOC(CCON4C(=O)c5ccccc5C4=O)C3)cs2)CC1 (stereo not drawn) [Compound 9]
Test A disease control rating (100 = 100% disease control, 0 = no disease control relative to the controls) (Plasmopara viticola): 0% | Test B disease control rating (100 = 100% disease control, 0 = no disease control relative to the controls) (Phytophthora infestans [1]): 99% | Test C disease control rating (100 = 100% disease control, 0 = no disease control relative to the controls) (Phytophthora infestans [2]): 73%

Cc1cc(C(F)(F)F)nn1CC(=O)N1CCC(c2nc(C3=NOC(COc4c(F)cccc4F)C3)cs2)CC1 (stereo not drawn) [Compound 10]
Test A disease control rating (100 = 100% disease control, 0 = no disease control relative to the controls) (Plasmopara viticola): 0% | Test B disease control rating (100 = 100% disease control, 0 = no disease control relative to the controls) (Phytophthora infestans [1]): 100% | Test C disease control rating (100 = 100% disease control, 0 = no disease control relative to the controls) (Phytophthora infestans [2]): 64%

Cc1cc(C(F)(F)F)nn1CC(=O)N1CCC(c2nc(C3=NOC(CCCOc4c(F)cccc4F)C3)cs2)CC1 (stereo not drawn) [Compound 11]
Test A disease control rating (100 = 100% disease control, 0 = no disease control relative to the controls) (Plasmopara viticola): 100% | Test B disease control rating (100 = 100% disease control, 0 = no disease control relative to the controls) (Phytophthora infestans [1]): 100% | Test C disease control rating (100 = 100% disease control, 0 = no disease control relative to the controls) (Phytophthora infestans [2]): 99%

Cc1cc(C(F)(F)F)nn1CC(=O)N1CCC(c2nc(C3=NOC(CCCCOc4c(F)cccc4F)C3)cs2)CC1 (stereo not drawn) [Compound 12]
Test A disease control rating (100 = 100% disease control, 0 = no disease control relative to the controls) (Plasmopara viticola): 100% | Test B disease control rating (100 = 100% disease control, 0 = no disease control relative to the controls) (Phytophthora infestans [1]): 99% | Test C disease control rating (100 = 100% disease control, 0 = no disease control relative to the controls) (Phytophthora infestans [2]): 92%

COc1ccc(OCCC2CC(c3csc(C4CCN(C(=O)Cn5nc(C(F)(F)F)cc5C)CC4)n3)=NO2)c(F)c1 (stereo not drawn) [Compound 13]
Test A disease control rating (100 = 100% disease control, 0 = no disease control relative to the controls) (Plasmopara viticola): 100% | Test B disease control rating (100 = 100% disease control, 0 = no disease control relative to the controls) (Phytophthora infestans [1]): 100% | Test C disease control rating (100 = 100% disease control, 0 = no disease control relative to the controls) (Phytophthora infestans [2]): 95%

Cc1cc(C(F)(F)F)nn1CC(=O)N1CCC(c2nc(C3=NOC(CCOc4c(F)cc(C#N)cc4F)C3)cs2)CC1 (stereo not drawn) [Compound 14]
Test A disease control rating (100 = 100% disease control, 0 = no disease control relative to the controls) (Plasmopara viticola): 99% | Test B disease control rating (100 = 100% disease control, 0 = no disease control relative to the controls) (Phytophthora infestans [1]): 100% | Test C disease control rating (100 = 100% disease control, 0 = no disease control relative to the controls) (Phytophthora infestans [2]): 73%

Cc1cc(C(F)(F)F)nn1CC(=O)N1CCC(c2nc(C3=NOC(CCOc4ccc(C#N)cc4F)C3)cs2)CC1 (stereo not drawn) [Compound 15]
Test A disease control rating (100 = 100% disease control, 0 = no disease control relative to the controls) (Plasmopara viticola): 100% | Test B disease control rating (100 = 100% disease control, 0 = no disease control relative to the controls) (Phytophthora infestans [1]): 100% | Test C disease control rating (100 = 100% disease control, 0 = no disease control relative to the controls) (Phytophthora infestans [2]): 99%

COc1cc(F)c(OCC2CC(c3csc(C4CCN(C(=O)Cn5nc(C(F)(F)F)cc5C)CC4)n3)=NO2)c(F)c1 (stereo not drawn) [Compound 16]
Test A disease control rating (100 = 100% disease control, 0 = no disease control relative to the controls) (Plasmopara viticola): 99% | Test B disease control rating (100 = 100% disease control, 0 = no disease control relative to the controls) (Phytophthora infestans [1]): 100% | Test C disease control rating (100 = 100% disease control, 0 = no disease control relative to the controls) (Phytophthora infestans [2]): 99%

COC(=O)c1ccc(OCCC2CC(c3csc(C4CCN(C(=O)Cn5nc(C(F)(F)F)cc5C)CC4)n3)=NO2)c(F)c1 (stereo not drawn) [Compound 17]
Test A disease control rating (100 = 100% disease control, 0 = no disease control relative to the controls) (Plasmopara viticola): 100% | Test B disease control rating (100 = 100% disease control, 0 = no disease control relative to the controls) (Phytophthora infestans [1]): 100% | Test C disease control rating (100 = 100% disease control, 0 = no disease control relative to the controls) (Phytophthora infestans [2]): 99%

COc1cc(F)c(OCCC2CC(c3csc(C4CCN(C(=O)Cn5nc(C(F)(F)F)cc5C)CC4)n3)=NO2)c(F)c1 (stereo not drawn) [Compound 18]
Test A disease control rating (100 = 100% disease control, 0 = no disease control relative to the controls) (Plasmopara viticola): 79% | Test B disease control rating (100 = 100% disease control, 0 = no disease control relative to the controls) (Phytophthora infestans [1]): 71% | Test C disease control rating (100 = 100% disease control, 0 = no disease control relative to the controls) (Phytophthora infestans [2]): 17%
